Results from patent US20080194620A1, “Use of Benzodiazepine Receptor Ligands For Combating Signs of Ageing” (L'OREAL, priority 2004, published 2008).

How the values were obtained:
Type in all cases: cell-based
[1] = test system: Normal human epidermal keratinocytes; experiment: Synthesis of total epidermal glycosaminoglycans (incorporation of 3H-glucosamine); conditions: 1.5 mM, 72 h incubation
Protocol: Normal human epidermal keratinocytes are cultivated in SFM complete medium for 24 hours. The medium is then removed, and replaced with SFM medium without supplements containing the product PK11195 or the pharmacological reference. It is incubated for 72 h at 37° C. Tritiated glucosamine (D-[6-^3H]-glucosamine, Amersham TRK398 (1.3 Tbq/mmol, 35 Ci/mmol) is added for the last 24 hours of incubation. The glycosaminoglycans are extracted from the culture medium and from the deposited matrix, with a chaotropic buffer, then purified by ion-exchange chromatography. The radioactivity incorporated in the […] molecules (mostly GAGs) is counted by liquid scintillation. The results are expressed as percentage change in synthesis of the GAGs relative to the control.

[2] = test system: Normal human epidermal keratinocytes; experiment: Differentiation of keratinocytes: determination of transglutaminase K1 (TGK1) activity by radioassay
Protocol: (§1) Normal human epidermal keratinocytes are cultivated at 37° C. in keratinocyte-SFM medium (Gibco BRL 3701022) supplemented with EGF (epidermal growth factor) and pituitary extract, with or without calcium supplement (1.5 mM). After culture for 24 hours, the medium is replaced with medium containing the actives to be tested or reference substances. Culture is continued for 96 hours. The transglutaminase K1 (TGK1) activity is evaluated by radioassay, by measuring the covalent addition of tritiated putrescine to casein (acceptor protein) for 1 h 30 min at 37° C. The casein is precipitated with TCA (trichloroacetic acid) on a dry filter and then counted in liquid scintillation. The proteins in each sample are determined by means of a kit (BioRad 500-0116). Statistical analysis of the data is performed by analysis of variance (ANOVA) using Dunnett's multiple comparison test.
(§2) The molecule PK11195 (or 1-(2-chlorophenyl)-N-(1-methyl-propyl)-3-isoquinoline carboxamide), a specific inhibitor of the peripheral benzodiazepine receptor, was tested at respective concentrations of 10^−4 M and 10^−6 M. The active was added to the keratinocyte culture medium, containing calcium or not containing calcium. The effect of a medium alone containing 1.5 mM of calcium (pro-differentiation agent) was used as a positive control of differentiation. […]

[3] = test system: Normal human epidermal keratinocytes; experiment: Cellular viability of keratinocytes in the TGK1 differentiation cultures; conditions: 10^−6 M; medium with calcium (1.5 mM); 96 h culture; control = 100%
Protocol: as §1, §2

Row | Structure (SMILES) | Incorporation of 3H-glucosamine, CPM ([1]; control 10624 CPM) [CPM] | Incorporation of 3H-glucosamine, Percentage/control ([1]; p<0.01) [%] | TGK1 activity ([2]; 10^−6 M, medium with calcium (1.5 mM), 96 h culture, control = 100%, *p<0.05) [%] | decrease in TGK1 activity ([2]; medium with retinol 10^−6 M (anti-differentiation reference)) [%] | Cellular viability [3] [%]
1 | [Ca+2].[Cl-].[Cl-] [CaCl2] | 16791 | 158 |  |  | 
2 | CC1=C(/C=C/C(C)=C/C=C/C(C)=C/CO)C(C)(C)CCC1 [retinol] |  |  | 56 | −44 | 103
